Tested on: MelanoDerm™ in vitro skin model (MEL-300B melanoderms)
Assay: In vitro skin model test (MelanoDerm skin-lightening, digital image quantification)
Format: cell-based
Details: for pixel density / lightening: 14 days; for pixel density: pixel content of untreated set at 1.00; for lightening: vs untreated
Description: The skin-lightening effect was validated on the in vitro skin model, the MelanoDerm™ carried out by MatTek using MEL-300B melanoderms. This model is very similar in structure and function to the natural skin and has the cell types relevant in the epidermis including the melanocytes, which are responsible for the synthesis of the main pigment melanin. Further information can be found, for example, in http://www.mattek.com/pages/in_vitro_basics. The study was carried out over a period of 14 days at two concentrations, 10 μM and 60 μM. 1% Kojic acid was the positive standard and untreated as negative control.
Digital image quantification was achieved by subtracting a standard background value from the pixel content of regions of identical size. The pixel content of untreated cells was set at 1.00. Treatment with topical 1% kojic acid as a positive control gave pixel density of 0.96 or 4% lightening. Treatment with Duroquinone gave pixel density of 0.82 or 18% lightening at a concentration of 10 μM and 0.60 or 40% lightening at a concentration of 60 μM. Treatment with 2,5,6-trimethyl-3-(4-(trifluoromethyl)phenyl)cyclohexa-2,5-diene-1,4-dione gave pixel density of […] or 34% lightening at a concentration of 60 μM.

Q: Which results are given for `CC1=C(C)C(=O)C(c2ccc(C(F)(F)F)cc2)=C(C)C1=O` [2,5,6-trimethyl-3-(4-(trifluoromethyl)phenyl)cyclohexa-2,5-diene-1,4-dione]?
A: effectiveness relative to kojic acid positive standard (60 μM vs 1% kojic acid): ten times as effective; pixel density (60 μM): 0.69; lightening (60 μM): 34%

Q: For `CC1=C(C)C(=O)C(C)=C(C)C1=O` [Duroquinone, 2,3,5,6-tetramethylcyclohexa-2,5-diene-1,4-dione], which “effectiveness relative to kojic acid positive standard” value (10 μM vs 1% kojic acid) is on record?
A: Its value is “four and a half times as effective”.

Q: And the pixel density (10 μM)?
A: The pixel density was 0.82.

Q: And the lightening (10 μM)?
A: The lightening was 18%.

Q: What about the “effectiveness relative to kojic acid positive standard” value (60 μM vs 1% kojic acid) of the same compound?
A: The value was “ten times as effective”.

Q: And the pixel density (60 μM)?
A: Its pixel density is 0.60.

Q: And the lightening (60 μM)?
A: The lightening was 40%.

Q: What does the source list for `O=c1cc(CO)occ1O` [kojic acid, reference compound]?
A: pixel density (topical 1% (positive control)): 0.96; lightening (topical 1% (positive control)): 4%
